Test: Toxicokinetics and tissue disposition of total [14C] radioactivity after a single intratracheal dose of [14C]-PCB52 (0.157 mg/kg) in pregnant rats at GD 11±1
Format: in vivo, Sprague–Dawley rats
Experimental: Female Sprague–Dawley rats (8 weeks old) weighing 237–269.7 g (mean = 247.5 g) (Envigo RMS, LLC, Indianapolis, IN) were used for this study. All animal experiments were performed following the protocols evaluated and approved by the University of Iowa Institutional Animal Care and Use Committee (approval number 3091097). After arrival, the animals were acclimated for 7 days. The animals were housed in a light and temperature-controlled environment with ad libitum access to food and water during quarantine and throughout the study. Timed pregnancy was achieved by harem mating. , Briefly, one male and two female rats were placed together in the evening and checked for vaginal plug the following day. If vaginal plug was present, the male was removed from the breeding cage, and the gestation day 0 (GD 0), 0-day post coitum was assigned. Pregnancies were confirmed by ultrasound scan at GD 9. The dams were exposed at GD 11 (±1 day) to capture the period of early organogenesis and hormonal function, which falls within week 3 of human embryonic development. ,− On the day of the experiment, pregnant rats were intratracheally administered an average of 40 μg (range, 35–45 μg) of [^14C]-PCB52 in 100 μL of exposure solution. Although the dose used in this study exceeded the tolerable daily intake (TDI) of PCBs for healthy individuals, which is 1.6 μg per day for an individual weighing 80 kg, the use of higher acute doses has been established in toxicological studies intended for risk assessment. The intratracheal instillation method was chosen for administering [^14C]-PCB52 to represent inhalation exposures, capture exhaled concentration, and efficiently utilize the limited availability of the cost-intensive radiolabeled PCB52. , Although inhalation exposure would better represent real-world exposures to airborne LC-PCBs, it would not allow us to accurately measure the amount of PCB52 exhaled into the air after exposure and is experimentally infeasible. […] All intratracheal instillations were done under light anesthesia, achieved using a 4% isoflurane concentration via a Fortec vaporizer (Cyprane, Keighley, UK). The animals recovered from anesthesia within 1 min. Subsequently, the animals were housed within a cylindrical glass chamber measuring 2 L in volume, equipped with glass drainage mechanisms to facilitate urine collection and a metallic screen to segregate urine from feces (as in Figure S1). Air was drawn from the chamber at 6.0 L/min through a cartridge containing the XAD-2 polymeric resin to capture any exhaled [^14C]-PCB52. For periods longer than 24 h postexposure, exposed dams were placed in a metabolic cage, which was fitted with a cartridge containing XAD-2 to capture exhaled [^14C]-PCB52 as in other end points.
Maternal blood, urine, and feces samples were collected immediately before and at 0.21, 1.67, 12, 24, 48, and 96 h after lung dosing. The exposed dams were euthanized using 4% isoflurane, followed by cervical dislocation and exsanguination via a cardiac puncture. Euthanasia was consistently performed during the light cycle. Dams’ fur was wiped and analyzed for radioactivity. Using the retro-orbital blood collection method, 0.5–1.5 mL ([…] of an exposed pregnant rat’s body weight) of blood sample was collected from each of the dams until the individual dams were necropsied for whole-body tissue harvesting. At the end of the exposure period, the chamber’s interior walls were rinsed separately with water and acetone/hexane (25 – 45 mL) and wiped to measure residues. From the collected whole blood samples, 100 μL were aliquoted into three vials each, and the remaining blood was allowed to clot at room temperature before being centrifuged to yield serum. The placentas, developing fetuses, and whole-body tissue samples were harvested immediately before exposure and at 0.21, 1.67, 12, 24, and 96 h postexposure. […]

[1] = Mammary glands, 0.21 h post-exposure
[2] = Mammary glands, 1.67 h post-exposure
[3] = Mammary glands, 12 h post-exposure
[4] = Mammary glands, 24 h post-exposure
[5] = Mammary glands, 96 h post-exposure
[6] = Matter in duodenum, 0.21 h post-exposure
[7] = Matter in duodenum, 1.67 h post-exposure
[8] = Matter in duodenum, 12 h post-exposure
[9] = Matter in duodenum, 24 h post-exposure
[10] = Matter in duodenum, 96 h post-exposure
[11] = Matter in intestine, 0.21 h post-exposure
[12] = Matter in intestine, 1.67 h post-exposure
[13] = Matter in intestine, 12 h post-exposure
[14] = Matter in intestine, 24 h post-exposure
[15] = Matter in intestine, 96 h post-exposure
[16] = Matter in stomach, 0.21 h post-exposure
[17] = Matter in stomach, 1.67 h post-exposure
[18] = Matter in stomach, 12 h post-exposure
[19] = Matter in stomach, 24 h post-exposure
[20] = Matter in stomach, 96 h post-exposure

SMILES: Clc1ccc(Cl)c(-c2cc(Cl)ccc2Cl)c1 [PCB52, 2,2′,5,5′-Tetrachlorobiphenyl]
- Conc. per mg wet tissue (Esophagus, 96 h post-exposure): 0.25 dpm/mg
- Percent tissue distribution (Esophagus, 96 h post-exposure): 0.003%
- AUC_%Extrap (Fetus): 9.23%
- Terminal elimination half-life (t1/2) (Fetus): 34.78 h
- maternal serum exposure ratio (Fetus): 0.27
- AUC_%Extrap (Heart): 6.21%
- Terminal elimination half-life (t1/2) (Heart): 26.21 h
- Conc. per mg wet tissue (Heart, 96 h post-exposure): 0.61 dpm/mg
- AUC_%Extrap (Kidney): 13.09%
- Terminal elimination half-life (t1/2) (Kidney): 35.41 h
- AUC_%Extrap (Liver): 14.37%
- Terminal elimination half-life (t1/2) (Liver): 42.13 h
- Conc. per mg wet tissue (Liver, 0.21 h post-exposure): 55.77 dpm/mg
- Percent tissue distribution (Liver, 0.21 h post-exposure): 17.36%
- Conc. per mg wet tissue (Liver, 1.67 h post-exposure): 23.78 dpm/mg
- Percent tissue distribution (Liver, 1.67 h post-exposure): 6.58%
- Conc. per mg wet tissue (Liver, 12 h post-exposure): 11.09 dpm/mg
- Percent tissue distribution (Liver, 12 h post-exposure): 1.88%
- Conc. per mg wet tissue (Liver, 24 h post-exposure): 8.22 dpm/mg
- Percent tissue distribution (Liver, 24 h post-exposure): 1.63%
- Conc. per mg wet tissue (Liver, 96 h post-exposure): 1.16 dpm/mg
- Percent tissue distribution (Liver, 96 h post-exposure): 0.41%
- AUC_%Extrap (Lung): 4.66%
- Terminal elimination half-life (t1/2) (Lung): 22.05 h
- AUC_%Extrap (Mammary glands): 15.15%
- Terminal elimination half-life (t1/2) (Mammary glands): 34.16 h
- Conc. per mg wet tissue [1]: 5.39 dpm/mg
- Percent tissue distribution [1]: 0.28%
- Conc. per mg wet tissue [2]: 2.46 dpm/mg
- Percent tissue distribution [2]: 1.21%
- Conc. per mg wet tissue [3]: 0.74 dpm/mg
- Percent tissue distribution [3]: 1.18%
- Conc. per mg wet tissue [4]: 1.55 dpm/mg
- Percent tissue distribution [4]: 0.90%
- Conc. per mg wet tissue [5]: 1.67 dpm/mg
- Percent tissue distribution [5]: 0.18%
- AUC_%Extrap (Matter in Colon): 23.30%
- Terminal elimination half-life (t1/2) (Matter in Colon): 40.00 h
- AUC_%Extrap (Matter in amp colon): 13.09%
- Terminal elimination half-life (t1/2) (Matter in amp colon): 30.46 h
- AUC_%Extrap (Matter in duodenum): 26.66%
- Terminal elimination half-life (t1/2) (Matter in duodenum): 34.63 h
- Conc. per mg wet tissue [6]: 6.81 dpm/mg
- Percent tissue distribution [6]: 0.44%
- Conc. per mg wet tissue [7]: 51.01 dpm/mg
- Percent tissue distribution [7]: 0.57%
- Conc. per mg wet tissue [8]: 14.38 dpm/mg
- Percent tissue distribution [8]: 0.16%
- Conc. per mg wet tissue [9]: 16.72 dpm/mg
- Percent tissue distribution [9]: 0.19%
- Conc. per mg wet tissue [10]: 0.68 dpm/mg
- Percent tissue distribution [10]: 0.33%
- AUC_%Extrap (Matter in intestine): 2.18%
- Terminal elimination half-life (t1/2) (Matter in intestine): 17.41 h
- Conc. per mg wet tissue [11]: 10.76 dpm/mg
- Percent tissue distribution [11]: 0.70%
- Conc. per mg wet tissue [12]: 1.07 dpm/mg
- Percent tissue distribution [12]: 4.97%
- Conc. per mg wet tissue [13]: 0.75 dpm/mg
- Percent tissue distribution [13]: 1.53%
- Conc. per mg wet tissue [14]: 13.86 dpm/mg
- Percent tissue distribution [14]: 2.58%
- Conc. per mg wet tissue [15]: 0.41 dpm/mg
- Percent tissue distribution [15]: 0.02%
- AUC_%Extrap (Matter in stomach): 4.07%
- Terminal elimination half-life (t1/2) (Matter in stomach): 16.50 h
- Conc. per mg wet tissue [16]: 28.20 dpm/mg
- Percent tissue distribution [16]: 0.47%
- Conc. per mg wet tissue [17]: 5.71 dpm/mg
- Percent tissue distribution [17]: 0.06%
- Conc. per mg wet tissue [18]: 1.71 dpm/mg
- Percent tissue distribution [18]: 0.09%
- Conc. per mg wet tissue [19]: 1.57 dpm/mg
- Percent tissue distribution [19]: 1.52%
- Conc. per mg wet tissue [20]: 0.18 dpm/mg
- Percent tissue distribution [20]: 0.04%
- AUC_%Extrap (Muscle): 96.68%
- Terminal elimination half-life (t1/2) (Muscle): 1231.42 h
- Conc. per mg wet tissue (Muscle, 0.21 h post-exposure): 1.58 dpm/mg
- Percent tissue distribution (Muscle, 0.21 h post-exposure): 28.65%
- Conc. per mg wet tissue (Muscle, 96 h post-exposure): 1.58 dpm/mg
- AUC_%Extrap (Ovary): 25.93%
- Terminal elimination half-life (t1/2) (Ovary): 46.53 h
- Conc. per mg wet tissue (Ovary, 0.21 h post-exposure): 19.85 dpm/mg

— publication PMC12794188, “Maternal–Fetal Transfer and Toxicokinetics of 2,2′,5,5′-Tetrachlorobiphenyl, [^14C]-PCB52, Following Intratracheal Administration” (Chemical Research in Toxicology, 2025)
